# Laboratory results: publication PMC9090415, “Discovery of small molecule inhibitors of Plasmodium falciparum apicoplast DNA polymerase” (Journal of Enzyme Inhibition and Medicinal Chemistry, 2022)
# Target: P. falciparum apicoplast DNA polymerase (Pf-apPOL) (Plasmodium falciparum, UniProt Q8ILY1)
# Assay: Fluorescence-based high-throughput DNA polymerase assay (molecular beacon), primary screen and dose-response
# Assay type: biochemical
# Details: for DNA Pol: unit not given, 90 min, 10 µM; for % inhibition Apo pol 10' 2.5 / % inhibition Apo pol 10' 5 / % inhibition Apo pol 10' 10 / % inhibition Apo pol 10' 20 / % inhibition Apo pol 10' 40 / % inhibition Apo pol 10' 80: read at 10'; for % inhibition Apol 90' 2.5 / % inhibition Apol 90' 5 / % inhibition Apol 90' 10 / % inhibition Apol 90' 20 / % inhibition Apol 90' 40 / % inhibition Apol 90' 80 / % inhibition ApPOL 90' 2.5 / % inhibition ApPOL 90' 5 / % inhibition ApPOL 90' 10 / % inhibition ApPOL 90' 20 / % inhibition ApPOL 90' 40 / % inhibition ApPOL 90' 80: read at 90'; for % inhibition apPOL 180' 2.5 / % inhibition apPOL 180' 5 / % inhibition apPOL 180' 10 / % inhibition apPOL 180' 20 / % inhibition apPOL 180' 40 / % inhibition apPOL 180' 80: read at 180'; for % inhibition Apo pol 5' 2.5 / % inhibition Apo pol 5' 5 / % inhibition Apo pol 5' 10 / % inhibition Apo pol 5' 20 / % inhibition Apo pol 5' 40 / % inhibition Apo pol 5' 80: read at 5'; for % inhibition Apol 40' 2.5 / % inhibition Apol 40' 5 / % inhibition Apol 40' 10 / % inhibition Apol 40' 20 / % inhibition Apol 40' 40 / % inhibition Apol 40' 80: read at 40'
# Method in brief: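 Single-point screening used 10 µM compound with 20 nM polymerase, 20 nM hairpin substrate and 6 µM dNTPs for 90 min at 25 °C. Confirmatory titrations (2.5–80 µM) followed fluorescence at three times, and IC50 was derived from a fit including a cooperativity term n.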
# [1] = 186 hits, DNA Pol (screen value)
# Sequence of P. falciparum apicoplast DNA polymerase (Pf-apPOL) (Q8ILY1 entry or part of it): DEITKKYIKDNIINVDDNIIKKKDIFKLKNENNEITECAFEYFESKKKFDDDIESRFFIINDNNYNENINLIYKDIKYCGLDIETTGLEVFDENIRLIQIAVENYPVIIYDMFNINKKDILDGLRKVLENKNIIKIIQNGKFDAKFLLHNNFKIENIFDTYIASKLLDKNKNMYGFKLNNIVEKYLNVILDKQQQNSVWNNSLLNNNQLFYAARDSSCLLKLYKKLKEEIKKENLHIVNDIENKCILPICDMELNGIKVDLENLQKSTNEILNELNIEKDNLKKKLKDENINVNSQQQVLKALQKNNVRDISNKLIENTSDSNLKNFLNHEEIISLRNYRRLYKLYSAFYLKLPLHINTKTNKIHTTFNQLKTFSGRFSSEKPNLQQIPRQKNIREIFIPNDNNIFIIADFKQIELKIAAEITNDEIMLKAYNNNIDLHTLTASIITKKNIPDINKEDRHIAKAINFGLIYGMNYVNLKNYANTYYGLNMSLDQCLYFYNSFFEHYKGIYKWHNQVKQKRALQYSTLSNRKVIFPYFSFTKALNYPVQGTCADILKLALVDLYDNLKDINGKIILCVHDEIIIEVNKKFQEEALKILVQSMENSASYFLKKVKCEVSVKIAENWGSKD
smiles,measurement,setting,value
"Cn1nc(-c2nc(-c3ccccc3)no2)c2c1CCN(C(=O)Cc1cccs1)C2 [Molecule 58, O=C(N1CCc2c(C1)c(nn2C)c1onc(n1)c1ccccc1)Cc1cccs1]",DNA Pol,[1],38
same,DNA Pol,'DNA Pol' (screen value),38
same,% inhibition Apo pol 10' 2.5,"DRC-1, concentration 2.5",10%
same,% inhibition Apo pol 10' 5,"DRC-1, concentration 5",10%
same,% inhibition Apo pol 10' 10,"DRC-1, concentration 10",35%
same,% inhibition Apo pol 10' 20,"DRC-1, concentration 20",48%
same,% inhibition Apo pol 10' 40,"DRC-1, concentration 40",65%
same,% inhibition Apo pol 10' 80,"DRC-1, concentration 80",65%
same,% inhibition Apol 90' 2.5,"DRC-1, concentration 2.5",-0.451%
same,% inhibition Apol 90' 5,"DRC-1, concentration 5",2.41%
same,% inhibition Apol 90' 10,"DRC-1, concentration 10",21%
same,% inhibition Apol 90' 20,"DRC-1, concentration 20",37%
same,% inhibition Apol 90' 40,"DRC-1, concentration 40",58%
same,% inhibition Apol 90' 80,"DRC-1, concentration 80",67%
same,% inhibition apPOL 180' 2.5,"DRC-1, concentration 2.5",-6%
same,% inhibition apPOL 180' 5,"DRC-1, concentration 5",-3.68%
same,% inhibition apPOL 180' 10,"DRC-1, concentration 10",9%
same,% inhibition apPOL 180' 20,"DRC-1, concentration 20",21%
same,% inhibition apPOL 180' 40,"DRC-1, concentration 40",45%
same,% inhibition apPOL 180' 80,"DRC-1, concentration 80",62%
same,% inhibition Apo pol 5',"DRC-2, concentration 5",10%
same,% inhibition Apol 40',"DRC-2, concentration 2.5",9%
same,% inhibition ApPOL 90',"DRC-2, 90', concentration 40",54%
same,% inhibition ApPOL 90',"DRC-2, 90', concentration 80",54%
same,% inhibition Apo pol 5' 2.5,"DRC-2, concentration 2.5",7.55%
same,% inhibition Apo pol 5' 5,"DRC-2, concentration 5",10%
same,% inhibition Apo pol 5' 10,"DRC-2, concentration 10",18%
same,% inhibition Apo pol 5' 20,"DRC-2, concentration 20",27%
same,% inhibition Apo pol 5' 40,"DRC-2, concentration 40",28%
same,% inhibition Apo pol 5' 80,"DRC-2, concentration 80",16%
same,% inhibition Apol 40' 2.5,"DRC-2, concentration 2.5",9%
same,% inhibition Apol 40' 5,"DRC-2, concentration 5",13%
same,% inhibition Apol 40' 10,"DRC-2, concentration 10",24%
same,% inhibition Apol 40' 20,"DRC-2, concentration 20",39%
same,% inhibition Apol 40' 40,"DRC-2, concentration 40",51%
same,% inhibition Apol 40' 80,"DRC-2, concentration 80",47%
same,% inhibition ApPOL 90' 2.5,"DRC-2, concentration 2.5",7.37%
same,% inhibition ApPOL 90' 5,"DRC-2, concentration 5",11%
same,% inhibition ApPOL 90' 10,"DRC-2, concentration 10",23%
same,% inhibition ApPOL 90' 20,"DRC-2, concentration 20",40%
same,% inhibition ApPOL 90' 40,"DRC-2, concentration 40",54%
same,% inhibition ApPOL 90' 80,"DRC-2, concentration 80",54%
same,% inhibition apPOL 180' 2.5,"DRC-2, concentration 2.5",3.22%
same,% inhibition apPOL 180' 5,"DRC-2, concentration 5",6%
same,% inhibition apPOL 180' 10,"DRC-2, concentration 10",15%
same,% inhibition apPOL 180' 20,"DRC-2, concentration 20",31%
same,% inhibition apPOL 180' 40,"DRC-2, concentration 40",52%
same,% inhibition apPOL 180' 80,"DRC-2, concentration 80",56%
same,% inhibition Apo pol 10',"first dose-response, concentration 2.5",10%
same,% inhibition Apo pol 10',"first dose-response, concentration 5",10%
same,% inhibition Apo pol 10',"first dose-response, concentration 40",65%
same,% inhibition Apo pol 10',"first dose-response, concentration 80",65%
same,% inhibition Apol 90',"first dose-response, 90', concentration 10",21%
same,% inhibition apPOL 180',"first dose-response, concentration 10",9%
same,% inhibition apPOL 180',"first dose-response, concentration 20",21%
"O=C1CSC2=NC3=C(CCc4ccccc43)C(c3cccs3)N12 (centres unmarked) [Molecule 59, O=C1CSC2=NC3=C(C(N12)c1cccs1)CCc1c3cccc1]",DNA Pol,[1],63
same,DNA Pol,'DNA Pol' (screen value),63
same,% inhibition Apo pol 10' 2.5,"DRC-1, concentration 2.5",4.043%
same,% inhibition Apo pol 10' 5,"DRC-1, concentration 5",24.0896%
same,% inhibition Apo pol 10' 10,"DRC-1, concentration 10",41.1279%
same,% inhibition Apo pol 10' 20,"DRC-1, concentration 20",53.1812%
same,% inhibition Apo pol 10' 40,"DRC-1, concentration 40",67.0288%
same,% inhibition Apo pol 10' 80,"DRC-1, concentration 80",63.2791%
same,% inhibition Apol 90' 2.5,"DRC-1, concentration 2.5",-1.656%
same,% inhibition Apol 90' 5,"DRC-1, concentration 5",10.7696%
same,% inhibition Apol 90' 10,"DRC-1, concentration 10",22.0098%
same,% inhibition Apol 90' 20,"DRC-1, concentration 20",35.5266%
same,% inhibition Apol 90' 40,"DRC-1, concentration 40",60.0258%
same,% inhibition Apol 90' 80,"DRC-1, concentration 80",67.4831%
same,% inhibition apPOL 180' 2.5,"DRC-1, concentration 2.5",-6.428%
same,% inhibition apPOL 180' 5,"DRC-1, concentration 5",-0.2424%
same,% inhibition apPOL 180' 10,"DRC-1, concentration 10",9.04%
same,% inhibition apPOL 180' 20,"DRC-1, concentration 20",18.673%
same,% inhibition apPOL 180' 40,"DRC-1, concentration 40",46.5795%
same,% inhibition apPOL 180' 80,"DRC-1, concentration 80",61.292%
same,% inhibition Apo pol 5',"DRC-2, concentration 10",28%
same,% inhibition Apol 40',"DRC-2, concentration 10",28%
same,% inhibition Apol 40',"DRC-2, concentration 40",45%
same,% inhibition ApPOL 90',"DRC-2, 90', concentration 40",45%
same,% inhibition Apo pol 5' 2.5,"DRC-2, concentration 2.5",3.73%
same,% inhibition Apo pol 5' 5,"DRC-2, concentration 5",15%
same,% inhibition Apo pol 5' 10,"DRC-2, concentration 10",28%
same,% inhibition Apo pol 5' 20,"DRC-2, concentration 20",33%
same,% inhibition Apo pol 5' 40,"DRC-2, concentration 40",31%
same,% inhibition Apo pol 5' 80,"DRC-2, concentration 80",23%
same,% inhibition Apol 40' 2.5,"DRC-2, concentration 2.5",3%
same,% inhibition Apol 40' 5,"DRC-2, concentration 5",14%
same,% inhibition Apol 40' 10,"DRC-2, concentration 10",28%
same,% inhibition Apol 40' 20,"DRC-2, concentration 20",39%
same,% inhibition Apol 40' 40,"DRC-2, concentration 40",45%
same,% inhibition Apol 40' 80,"DRC-2, concentration 80",48%
same,% inhibition ApPOL 90' 2.5,"DRC-2, concentration 2.5",-1.13%
same,% inhibition ApPOL 90' 5,"DRC-2, concentration 5",10%
same,% inhibition ApPOL 90' 10,"DRC-2, concentration 10",22%
same,% inhibition ApPOL 90' 20,"DRC-2, concentration 20",35%
same,% inhibition ApPOL 90' 40,"DRC-2, concentration 40",45%
same,% inhibition ApPOL 90' 80,"DRC-2, concentration 80",52%
same,% inhibition apPOL 180' 2.5,"DRC-2, concentration 2.5",-8%
same,% inhibition apPOL 180' 5,"DRC-2, concentration 5",2.64%
same,% inhibition apPOL 180' 10,"DRC-2, concentration 10",11%
same,% inhibition apPOL 180' 20,"DRC-2, concentration 20",24%
same,% inhibition apPOL 180' 40,"DRC-2, concentration 40",38%
same,% inhibition apPOL 180' 80,"DRC-2, concentration 80",55%
"Cc1cc2[nH]c(C(=O)Nc3ccc(F)cc3)c(CN3CCOCC3)c2s1 [Molecule 60, Fc1ccc(cc1)NC(=O)c1[nH]c2c(c1CN1CCOCC1)sc(c2)C]",DNA Pol,[1],24
same,DNA Pol,'DNA Pol' (screen value),24
same,% inhibition Apo pol 10' 2.5,"DRC-1, concentration 2.5",-2.4883%
same,% inhibition Apo pol 10' 5,"DRC-1, concentration 5",6.203%
same,% inhibition Apo pol 10' 10,"DRC-1, concentration 10",25.0572%
same,% inhibition Apo pol 10' 20,"DRC-1, concentration 20",44.6815%
same,% inhibition Apo pol 10' 40,"DRC-1, concentration 40",69.9494%
same,% inhibition Apo pol 10' 80,"DRC-1, concentration 80",76.8011%
same,% inhibition Apol 90' 2.5,"DRC-1, concentration 2.5",-5.041%
same,% inhibition Apol 90' 5,"DRC-1, concentration 5",0.952%
same,% inhibition Apol 90' 10,"DRC-1, concentration 10",13.5518%
same,% inhibition Apol 90' 20,"DRC-1, concentration 20",29.567%
same,% inhibition Apol 90' 40,"DRC-1, concentration 40",56.5635%
same,% inhibition Apol 90' 80,"DRC-1, concentration 80",73.0205%
same,% inhibition apPOL 180' 2.5,"DRC-1, concentration 2.5",-7.929%
same,% inhibition apPOL 180' 5,"DRC-1, concentration 5",-4.0377%
same,% inhibition apPOL 180' 10,"DRC-1, concentration 10",4.226%
same,% inhibition apPOL 180' 20,"DRC-1, concentration 20",14.1958%
same,% inhibition apPOL 180' 40,"DRC-1, concentration 40",39.4222%
same,% inhibition apPOL 180' 80,"DRC-1, concentration 80",63.0707%
same,% inhibition Apo pol 5',"DRC-2, concentration 40",38%
same,% inhibition ApPOL 90',"DRC-2, 90', concentration 20",38%
same,% inhibition Apo pol 5' 2.5,"DRC-2, concentration 2.5",-2.34%
same,% inhibition Apo pol 5' 5,"DRC-2, concentration 5",3.5%
same,% inhibition Apo pol 5' 10,"DRC-2, concentration 10",20%
same,% inhibition Apo pol 5' 20,"DRC-2, concentration 20",33%
same,% inhibition Apo pol 5' 40,"DRC-2, concentration 40",38%
same,% inhibition Apo pol 5' 80,"DRC-2, concentration 80",36%
same,% inhibition Apol 40' 2.5,"DRC-2, concentration 2.5",0.384%
same,% inhibition Apol 40' 5,"DRC-2, concentration 5",3.72%
same,% inhibition Apol 40' 10,"DRC-2, concentration 10",21%
same,% inhibition Apol 40' 20,"DRC-2, concentration 20",40%
same,% inhibition Apol 40' 40,"DRC-2, concentration 40",57%
same,% inhibition Apol 40' 80,"DRC-2, concentration 80",60%
same,% inhibition ApPOL 90' 2.5,"DRC-2, concentration 2.5",0.312%
same,% inhibition ApPOL 90' 5,"DRC-2, concentration 5",2.6%
same,% inhibition ApPOL 90' 10,"DRC-2, concentration 10",18%
same,% inhibition ApPOL 90' 20,"DRC-2, concentration 20",38%
same,% inhibition ApPOL 90' 40,"DRC-2, concentration 40",59%
same,% inhibition ApPOL 90' 80,"DRC-2, concentration 80",65%
same,% inhibition apPOL 180' 2.5,"DRC-2, concentration 2.5",-2.7%
same,% inhibition apPOL 180' 5,"DRC-2, concentration 5",-0.247%
same,% inhibition apPOL 180' 10,"DRC-2, concentration 10",11%
same,% inhibition apPOL 180' 20,"DRC-2, concentration 20",28%
same,% inhibition apPOL 180' 40,"DRC-2, concentration 40",53%
same,% inhibition apPOL 180' 80,"DRC-2, concentration 80",66%
